Source: article PMC6084407, “Structural Basis of Phosphatidic Acid Sensing by APH in Apicomplexan Parasites” (Structure(London, England:1993), 2018)

Legend:
[1] = target: T1, PfAPH106-235 (Plasmodium falciparum, UniProt Q8I1U2); test: 1D 1H NMR LUV titration; assay type: binding
T1 construct: gene PF3D7_0414600; C-terminal PH domain, residues 106-235; codon-optimised gene, pNIC28a-Bsa4, E. coli BL21(DE3); N-terminal His6 tag cut by TEV

[2] = target: T2, PfAPH106-235 (Plasmodium falciparum, UniProt Q8I1U2, K138A); test: biochemical
T2 construct: gene PF3D7_0414600
T2 sequence (Q8I1U2 106-235 K138A): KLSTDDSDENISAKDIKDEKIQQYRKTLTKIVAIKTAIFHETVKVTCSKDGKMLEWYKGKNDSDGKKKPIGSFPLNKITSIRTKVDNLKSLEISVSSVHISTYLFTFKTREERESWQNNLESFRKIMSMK

[3] = target: T3, PfAPH106-235 (Plasmodium falciparum, UniProt Q8I1U2, H145A); test: biochemical
T3 construct: gene PF3D7_0414600
T3 sequence (Q8I1U2 106-235 H145A): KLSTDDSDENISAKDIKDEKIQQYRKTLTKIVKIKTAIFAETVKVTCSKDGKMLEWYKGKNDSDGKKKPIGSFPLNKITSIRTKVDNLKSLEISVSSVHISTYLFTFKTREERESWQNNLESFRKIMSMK

[4] = target: T4, PfAPH106-235 (Plasmodium falciparum, UniProt Q8I1U2, F144A/I143A); test: biochemical
T4 construct: gene PF3D7_0414600
T4 sequence (Q8I1U2 106-235 F144A/I143A): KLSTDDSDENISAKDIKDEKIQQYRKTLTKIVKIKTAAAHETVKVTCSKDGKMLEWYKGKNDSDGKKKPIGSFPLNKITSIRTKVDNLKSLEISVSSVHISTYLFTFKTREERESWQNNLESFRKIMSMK

[5] = target: T5, PfAPH106-235 (Plasmodium falciparum, UniProt Q8I1U2, K140A); test: biochemical
T5 construct: gene PF3D7_0414600
T5 sequence (Q8I1U2 106-235 K140A): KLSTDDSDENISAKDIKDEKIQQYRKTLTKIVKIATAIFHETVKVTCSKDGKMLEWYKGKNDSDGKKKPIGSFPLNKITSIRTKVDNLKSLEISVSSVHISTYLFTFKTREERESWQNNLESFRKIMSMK

[6] = target: T6, PfAPH106-235 (Plasmodium falciparum, UniProt Q8I1U2, K138A/K140A); test: biochemical
T6 construct: gene PF3D7_0414600
T6 sequence (Q8I1U2 106-235 K138A/K140A): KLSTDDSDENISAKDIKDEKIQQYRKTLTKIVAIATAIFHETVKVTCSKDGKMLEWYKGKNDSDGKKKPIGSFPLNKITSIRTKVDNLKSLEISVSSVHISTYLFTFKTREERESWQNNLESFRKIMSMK

[7] = target: T7, TgAPH99-229 (Toxoplasma gondii, UniProt A0A125YY72); test: 1H-15N HSQC NMR titration; assay type: binding; conditions: free short-chain lipid; 250 μM protein; buffer pH 7
T7 construct: gene TGME49_249970; C-terminal PH domain, residues 99-229; codon-optimised gene, pNIC28a-Bsa4, E. coli BL21(DE3); N-terminal His6 tag cut by TEV
T7 sequence (A0A125YY72 entry or part of it): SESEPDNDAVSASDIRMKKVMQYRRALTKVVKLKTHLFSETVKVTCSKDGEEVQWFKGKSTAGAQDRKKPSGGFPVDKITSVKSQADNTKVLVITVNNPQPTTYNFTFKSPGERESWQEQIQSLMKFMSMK

[8] = target: T1, PfAPH106-235; test: 1H-15N HSQC NMR titration; assay type: binding
Source text: 1H-15N HSQC NMR titration on PfAPH106-235 | binding to the short-chain PA is in the fast exchange regime on the NMR timescale

T1 sequence (Q8I1U2 entry or part of it): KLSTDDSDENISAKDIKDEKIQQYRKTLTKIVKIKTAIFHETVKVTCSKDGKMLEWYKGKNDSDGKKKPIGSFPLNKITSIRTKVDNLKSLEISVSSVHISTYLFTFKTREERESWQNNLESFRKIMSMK

With CCCCCCCC/C=C\CCCCCCCC(=O)O[C@H](COC(=O)CCCCCCCCCCCCCCC)COP(=O)(O)O [POPA, 1-palmitoyl-2-oleoyl-sn-glycero-3-phosphate] the Kd [1] was 275 ± 13 µM, the Kd [2] was 959 ± 35 µM and the Kd [3] was 499 ± 9 µM. It also gave a Kd [4] of 1320 µM, a Kd [5] of 604 ± 29 µM and a Kd [6] of 1490 µM.

CCCCCCCC/C=C\CCCCCCCC(=O)O[C@H](COC(=O)CCCCCCCCCCCCCCC)COP(=O)([O-])OCC[N+](C)(C)C [POPC, 1-palmitoyl-2-oleoyl-sn-glycero-3-phosphocholine] showed a Kd [1] of 1070 ± 33 µM.

CCCCCCCC/C=C\CCCCCCCC(=O)O[C@H](COC(=O)CCCCCCCCCCCCCCC)COP(=O)(O)OC[C@H](N)C(=O)O [POPS, 1-palmitoyl-2-oleoyl-sn-glycero-3-phospho-L-serine] showed a Kd [1] of 850 ± 13 µM.

With CCCCCC(=O)OC[C@H](COP(=O)(O)O)OC(=O)CCCCC [short-chain PA, 1,2-dihexanoyl-sn-glycero-3-phosphate] the “1H-15N HSQC NMR titration” value [7] was “Binding experiments with recombinant APHs and short-chain PA enabled mapping” and the Kd [8] was > 50 µM.
